Laboratory results taken from patent US20240165097A1, “PHARMACEUTICAL COMPOSITION FOR THE TREATMENT OF ALZHEIMER'S DISEASE OR DEMENTIA” (Heptares Therapeutics Limited, priority 2021, published 2024).

Columns and labels:
[1] = molecular target: T1, human muscarinic M1 receptor (Homo sapiens, UniProt P11229); experiment: Alphascreen Surefire phospho-ERK1/2 assay, M1; format: cell-based; settings: for EC50: CHO cells, agonist 5 min, read-out: pEC50 M1 (converted)
T1 construct: expressed in transfected cells
T1 sequence (P11229 1-460): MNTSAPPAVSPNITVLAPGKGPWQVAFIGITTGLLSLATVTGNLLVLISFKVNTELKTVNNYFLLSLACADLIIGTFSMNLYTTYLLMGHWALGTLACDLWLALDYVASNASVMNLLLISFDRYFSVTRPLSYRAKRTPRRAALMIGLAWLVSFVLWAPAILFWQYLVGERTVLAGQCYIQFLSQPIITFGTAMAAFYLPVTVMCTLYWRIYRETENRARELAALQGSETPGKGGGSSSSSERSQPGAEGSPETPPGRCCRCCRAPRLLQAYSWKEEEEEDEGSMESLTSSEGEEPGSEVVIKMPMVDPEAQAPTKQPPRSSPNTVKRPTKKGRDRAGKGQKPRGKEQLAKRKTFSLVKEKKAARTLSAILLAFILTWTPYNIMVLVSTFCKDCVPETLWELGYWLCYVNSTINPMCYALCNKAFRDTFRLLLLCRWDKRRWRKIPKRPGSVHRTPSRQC
Procedure: (§1) ERK1/2 phosphorylation is a downstream consequence of both Gq/11 and Gi/o protein coupled receptor activation, making it highly suitable for the assessment of M1, M3 (Gq/11 coupled) and M2, M4 receptors (Gi/o coupled), rather than using different assay formats for different receptor subtypes. CHO cells stably expressing the human muscarinic M1, M2, M3 or M4 receptor were plated (25K/well) onto 96-well tissue culture plates in MEM-alpha+10% dialysed FBS. Once adhered, cells were serum-starved overnight. Agonist stimulation was performed by the addition of 5 μL agonist to the cells for 5 min (37° C.). Media was removed and 50 μL of lysis buffer added.

[2] = molecular target: T2, human muscarinic M4 receptor (Homo sapiens, UniProt P08173); experiment: Alphascreen Surefire phospho-ERK1/2 assay, M4; format: cell-based; settings: CHO cells, agonist 5 min; read-out: pEC50 M4 (converted)
T2 construct: expressed in transfected cells
T2 sequence (P08173 1-479): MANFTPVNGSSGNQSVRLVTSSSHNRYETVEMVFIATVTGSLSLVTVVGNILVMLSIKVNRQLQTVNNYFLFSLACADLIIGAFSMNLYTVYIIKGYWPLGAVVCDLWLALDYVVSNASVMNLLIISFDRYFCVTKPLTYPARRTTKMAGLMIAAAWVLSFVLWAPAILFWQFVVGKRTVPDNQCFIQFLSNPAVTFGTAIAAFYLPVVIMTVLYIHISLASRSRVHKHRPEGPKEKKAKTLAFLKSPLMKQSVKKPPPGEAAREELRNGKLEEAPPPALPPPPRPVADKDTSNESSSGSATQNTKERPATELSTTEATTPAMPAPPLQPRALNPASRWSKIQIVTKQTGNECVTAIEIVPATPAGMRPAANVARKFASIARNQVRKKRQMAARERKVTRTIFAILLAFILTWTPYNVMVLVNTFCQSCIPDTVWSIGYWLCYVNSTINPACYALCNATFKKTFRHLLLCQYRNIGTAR
Procedure: as §1

[3] = molecular target: T3, human muscarinic M2 receptor (Homo sapiens, UniProt P08172); experiment: Alphascreen Surefire phospho-ERK1/2 assay, M2; format: cell-based; settings: CHO cells, agonist 5 min
T3 construct: expressed in transfected cells
T3 sequence (P08172 1-466): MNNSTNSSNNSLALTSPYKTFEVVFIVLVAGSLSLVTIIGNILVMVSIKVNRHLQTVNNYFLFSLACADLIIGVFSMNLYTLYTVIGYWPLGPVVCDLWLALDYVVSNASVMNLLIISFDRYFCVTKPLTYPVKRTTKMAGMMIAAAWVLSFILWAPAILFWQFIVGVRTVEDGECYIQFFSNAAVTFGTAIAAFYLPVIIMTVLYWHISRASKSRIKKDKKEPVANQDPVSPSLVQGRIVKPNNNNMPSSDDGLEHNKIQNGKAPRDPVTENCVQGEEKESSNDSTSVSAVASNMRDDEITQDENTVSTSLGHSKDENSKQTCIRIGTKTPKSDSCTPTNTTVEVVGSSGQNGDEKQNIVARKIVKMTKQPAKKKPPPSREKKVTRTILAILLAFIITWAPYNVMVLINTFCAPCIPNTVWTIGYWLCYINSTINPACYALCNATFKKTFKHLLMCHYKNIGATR
Procedure: as §1

[4] = molecular target: T4, human muscarinic M3 receptor (Homo sapiens, UniProt P20309); experiment: Alphascreen Surefire phospho-ERK1/2 assay, M3; format: cell-based; settings: CHO cells, agonist 5 min; read-out: pEC50 M3 (converted)
T4 construct: expressed in transfected cells
T4 sequence (P20309 whole entry): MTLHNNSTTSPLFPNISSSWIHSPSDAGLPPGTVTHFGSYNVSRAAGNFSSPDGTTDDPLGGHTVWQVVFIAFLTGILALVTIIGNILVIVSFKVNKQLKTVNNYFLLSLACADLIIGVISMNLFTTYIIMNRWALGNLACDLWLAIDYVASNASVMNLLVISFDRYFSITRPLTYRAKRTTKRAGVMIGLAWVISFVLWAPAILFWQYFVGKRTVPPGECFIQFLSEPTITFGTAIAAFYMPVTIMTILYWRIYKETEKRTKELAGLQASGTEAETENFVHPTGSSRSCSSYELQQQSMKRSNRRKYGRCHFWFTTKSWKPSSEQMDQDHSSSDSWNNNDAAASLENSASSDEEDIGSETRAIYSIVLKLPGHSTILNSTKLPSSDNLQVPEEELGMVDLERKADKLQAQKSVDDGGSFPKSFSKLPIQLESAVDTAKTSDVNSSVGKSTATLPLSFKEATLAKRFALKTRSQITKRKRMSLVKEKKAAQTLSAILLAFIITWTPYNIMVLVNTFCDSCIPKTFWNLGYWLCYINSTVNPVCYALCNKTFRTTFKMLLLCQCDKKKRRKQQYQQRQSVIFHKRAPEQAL
Procedure: as §1

[5] = system: scopolamine-induced amnesia; experiment: Passive avoidance task; format: in vivo; settings: 3, 10, 30 mg/kg po
Procedure: Studies were carried out as described previously by Foley et al., (2004) Neuropsychopharmacology. In the passive avoidance task scopolamine administration (1 mg/kg, i.p.) at 6 hours following training rendered animals amnesic of the paradigm. A dose range of 3, 10, and 30 mg/kg (po) free base, administered 90 minutes prior to the training period via oral gavage, was examined.

[6] = system: patients with mild-to-moderate AD; settings: human, in vivo; cited from earlier work

Compound | EC50 [1] [nM] | EC50 [2] [nM] | Emax ([1]; CHO, read-out: % Emax cf. ACh, M1, CHO cells, agonist 5 min) [%] | EC50 ([3]; read-out: pEC50 M2 (converted)) [nM] | Emax ([3]; read-out: % Emax cf. ACh, M2) [%] | EC50 [4] [nM] | effect on scopolamine-induced amnesia [5] | incidence of cholinergic adverse events [6] [%]
CCOC(=O)N1C2CCC1CC(N1CCC3(CC1)CNC(=O)C3)C2 (single isomer, unassigned) [Example 2-2 Isomer 2, ethyl 3-(3-oxo-2,8-diazaspiro[4.5]dec-8-yl)-8-azabicyclo[3.2.1]octane-8-carboxylate] | 12.6 | 25.1 | – | – | – | – | – | –
CCOC(=O)N1C2CCC1CC(N1CCC3(CC1)CNC(=O)C3)C2 (single isomer, unassigned) [Example 2-2 Isomer 1, ethyl 3-(3-oxo-2,8-diazaspiro[4.5]dec-8-yl)-8-azabicyclo[3.2.1]octane-8-carboxylate] | 79.4 | 200 | 99 | > 20000 | 0 | > 20000 | reverse scopolamine-induced amnesia of the paradigm in a dose-dependent manner | –
Cc1ccc(Cc2cc3c(=O)n([C@H]4CCCC[C@@H]4O)cnc3c3ccccc23)cn1 [MK-7622] | – | – | – | – | – | – | – | 21
